target: T1, human recombinant ROCK II (Homo sapiens, UniProt O75116); assay: Determination of Rho kinase inhibition (Caliper peptide phosphorylation assay); assay type: biochemical; settings: negative decadal logarithm of the IC50; ROCK II residues 11-552, fluorescein peptide substrate, ATP, 60 min at 32° C.; salt or free base as obtained in the examples
T1 construct: recombinant human ROCK-II residues 11-552; His6 (N); purchased Upstate Ltd., Dundee, UK
Description: Determination of Rho Kinase Inhibition
To measure Rho-kinase inhibition, IC50 values were determined according to the following protocol:
Active human recombinant ROCK II (N-terminal His6-tagged recombinant human ROCK-II residues 11-552) was purchased from Upstate Ltd., Dundee, UK. The peptide substrate, Fluorescein-AKRRRLSSLRA-COOH, was obtained from JPT Peptide Technologies, Berlin, Germany. Adenosine-5′-triphosphate (ATP), bovine serum albumine (BSA), dimethylsulphoxide (DMSO), 4-(2-Hydroxyethyl)piperazine-1-ethanesulfonic acid (Hepes), Brij-35 and dithiothreitol (DTT) were purchased from Sigma-Aldrich, Munich, Germany. Tris(hydroxymethyl)-aminomethane (Tris), magnesium chloride, NaOH, 1M HCl and EDTA were obtained from Merck Biosciences, Darmstadt, Germany. “Complete” protease inhibitor was from Roche Diagnostics, Mannheim, Germany.
Test compounds were diluted to the appropriate concentrations in buffer 1 (25 mM Tris-HCl, pH 7.4, 5 mM MgCl2, 2 mM DTT, 0.02% (w/v) BSA and 3% DMSO). The ROCK II enzyme was diluted to a concentration of 100 ng/ml in buffer 2 (25 mM Tris-HCl, pH 7.4, 5 mM MgCl2, 2 mM DTT and 0.02% (w/v) BSA). The peptide substrate and ATP were diluted to concentrations of 3 μM and 120 μM, respectively, in the buffer 2. Two μl of the compound solution were mixed with 2 μl of the diluted enzyme in a 384-well small volume microtiter plate (Greiner, Bio-One, Frickenhausen, Germany), and the kinase reaction was initiated by addition of 2 μl of the solution containing peptide substrate and ATP. After 60 min incubation at 32° C., the reaction was stopped by addition of 20 μl of a solution containing 100 mM Hepes-NaOH, pH 7.4, 0.015% (v/v) Brij-35, 45 mM EDTA and 0.227% chip coating reagent 1 (Caliper Lifescience Inc, Hopkinton, Mass.). Phosphorylation of the substrate peptide was then detected on a Caliper 3000 instrument essentially as described by Pommereau et al (J. Biomol. Screening 9(5), 409-416, 2004). Separation conditions were as follows: Pressure −1.3 psi, upstream voltage −1562 V, downstream voltage −500 V, sample sip time 200 ms. Positive controls (buffer 1 instead of compound) and negative controls (buffer 1 instead of compound and buffer 2 instead of ROCK II) were run in parallel on each plate.
The following products/compounds were tested in said assay by using the respective form (salt or free base) obtained as in the examples described above and the following activities were measured.

T1 sequence (O75116 11-552): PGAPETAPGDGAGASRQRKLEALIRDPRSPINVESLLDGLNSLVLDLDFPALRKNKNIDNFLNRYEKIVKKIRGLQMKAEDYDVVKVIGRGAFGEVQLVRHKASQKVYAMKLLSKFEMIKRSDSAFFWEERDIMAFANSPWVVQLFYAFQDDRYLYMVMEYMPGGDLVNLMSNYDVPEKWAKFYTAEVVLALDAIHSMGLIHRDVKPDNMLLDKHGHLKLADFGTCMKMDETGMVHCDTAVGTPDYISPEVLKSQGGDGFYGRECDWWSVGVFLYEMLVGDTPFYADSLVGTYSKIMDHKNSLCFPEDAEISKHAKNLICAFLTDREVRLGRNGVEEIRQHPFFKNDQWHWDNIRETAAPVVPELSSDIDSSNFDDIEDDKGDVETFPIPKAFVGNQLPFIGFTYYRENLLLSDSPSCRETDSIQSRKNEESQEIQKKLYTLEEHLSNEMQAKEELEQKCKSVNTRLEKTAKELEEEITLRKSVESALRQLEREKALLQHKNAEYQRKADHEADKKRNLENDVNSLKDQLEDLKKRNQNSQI

**Q.** How did the IC50 turn out when `C[C@@H](N)C(=O)N1CCC(Oc2cc3cc[nH]c(=O)c3cc2Cl)CC1` [Example 11, 6-[1-(2-Amino-propionyl)-piperidin-4-yloxy]-7-chloro-2H-isoquinolin-1-one] was run?
**A.** ≤ 1 µM

**Q.** How did the IC50 turn out when `O=C([C@@H]1CCCN1)N1CCC(Oc2cc3cc[nH]c(=O)c3cc2Cl)CC1` [Example 15, 7-Chloro-6-[1-((S)-pyrrolidine-2-carbonyl)-piperidin-4-yloxy]-2H-isoquinolin-1-one] was run?
**A.** ≤ 1 µM

**Q.** How did the IC50 turn out when `CN(C)CC(=O)N1CCC(Oc2cc3cc[nH]c(=O)c3cc2Cl)CC1` [Example 16, 7-Chloro-6-[1-(2-dimethylamino-acetyl)-piperidin-4-yloxy]-2H-isoquinolin-1-one] was run?
**A.** ≤ 1 µM

**Q.** For `NC1(C(=O)N2CCC(Oc3cc4cc[nH]c(=O)c4cc3Cl)CC2)CC1` [Example 19, 6-[1-(1-Amino-cyclopropanecarbonyl)-piperidin-4-yloxy]-7-chloro-2H-isoquinolin-1-one], which IC50 is on record?
**A.** 1 to 10 µM

**Q.** For `N[C@@H](Cc1ccc(Cl)cc1)C(=O)N1CCC(Oc2cc3cc[nH]c(=O)c3cc2Cl)CC1` [Example 22, 6-{1-[(S)-2-Amino-3-(4-chloro-phenyl)-propionyl]-piperidin-4-yloxy}-7-chloro-2H-isoquinolin-1-one], which IC50 is on record?
**A.** ≤ 1 µM

**Q.** With `NCC(=O)N1CCC(Oc2ccc3c(=O)[nH]ccc3c2)CC1` [Example 24, 6-[1-(2-Amino-acetyl)-piperidin-4-yloxy]-2H-isoquinolin-1-one] as the compound, how does the IC50 read?
**A.** ≤ 1 µM

**Q.** With `CCCNC(=O)CN1CCC(Oc2cc3cc[nH]c(=O)c3cc2Cl)CC1` [Example 46, 2-[4-(7-Chloro-1-oxo-1,2-dihydro-isoquinolin-6-yloxy)-piperidin-1-yl]-N-propyl-acetamide] as the compound, how does the IC50 read?
**A.** ≤ 1 µM

**Q.** Which IC50 does the source give for `O=c1[nH]ccc2cc(OC3CCCNCC3)c(Cl)cc12` (stereo not drawn) [Example 55, 6-(Azepan-4-yloxy)-7-chloro-2H-isoquinolin-1-one] here?
**A.** ≤ 1 µM

**Q.** With `O=c1[nH]ccc2cc(OC3CNC3)c(Cl)cc12` [Example 58, 6-(Azetidin-3-yloxy)-7-chloro-2H-isoquinolin-1-one] as the compound, how does the IC50 read?
**A.** ≤ 1 µM

**Q.** `O=c1[nH]ccc2cc(O[C@@H]3CCN(Cc4ccccc4)C3)c(Cl)cc12` [Example 66, 6-((R)-1-Benzyl-pyrrolidin-3-yloxy)-7-chloro-2H-isoquinolin-1-one] was tested. Which IC50 did it give?
**A.** ≤ 1 µM

**Q.** For `O=c1[nH]ccc2cc(O[C@H]3CCN(Cc4ccccc4)C3)c(Cl)cc12` [Example 67, 6-((S)-1-Benzyl-pyrrolidin-3-yloxy)-7-chloro-2H-isoquinolin-1-one], which IC50 is on record?
**A.** 1 to 10 µM

**Q.** For `Cc1cc2c(=O)[nH]ccc2cc1OC1CCCNCC1` (stereo not drawn) [Example 68, 6-(Azepan-4-yloxy)-7-methyl-2H-isoquinolin-1-one], which IC50 is on record?
**A.** ≤ 1 µM

**Q.** `Cc1cc2c(=O)[nH]ccc2cc1OC[C@@H]1CCNC1` [Example 69, 7-Methyl-6-((R)-1-pyrrolidin-3-ylmethoxy)-2H-isoquinolin-1-one] was tested. Which IC50 did it give?
**A.** ≤ 1 µM

**Q.** How did the IC50 turn out when `Cc1cc2c(=O)[nH]ccc2cc1O[C@H]1CCNC1` [Example 70, 7-Methyl-6-((S)-pyrrolidin-3-yloxy)-2H-isoquinolin-1-one] was run?
**A.** ≤ 1 µM

**Q.** `Cc1c[nH]c(=O)c2ccc(OC3CCN(C[C@@H](N)CO)CC3)c(F)c12` [Example 75, 6-[1-((R)-2-Amino-3-hydroxy-propyl)-piperidin-4-yloxy]-5-fluoro-4-methyl-2H-isoquinolin-1-one] was tested. Which IC50 did it give?
**A.** 1 to 10 µM

Reference: patent US8278294B2, “Substituted isoquinoline and isoquinolinone derivatives as inhibitors of Rho-kinase” (Sanofi, priority 2006, dated 2012)
